Patent US20040102361A1, “Pharmaceutical composition for the treatment of pulmonary arterial hypertension” (priority 2002, published 2004)
Counter-ions that a name gives are not always drawn.

Legend:
[1] = system: patients with severe pulmonary arterial hypertension; assay: Clinical trial AC-052-355: treatment emergent adverse events; assay type: in vivo; conditions: 16 weeks
Method: (§1) This was a double-blind, randomized, placebo-controlled study to assess the effects of bosentan on hemodynamics, safety and tolerability in patients with severe pulmonary arterial hypertension when combined with the initiation of epoprostenol therapy.
(§2) Study design: The duration of the study was 16 weeks, 2:1 bosentan:placebo randomization. All patients received the starting epoprostenol dose of 2 ng/kg/min for 2 days, then they were randomized to receive either bosentan or placebo. Every 2 weeks thereafter, epoprostenol was increased by 2 ng/kg/min up to the target dose of 14±2 ng/kg/min by week 16. All patients received epoprostenol together with either bosentan or placebo for 16 weeks. Hemodynamic assessments were performed at baseline (prior to start of therapy) and again after 16 weeks of therapy. Safety monitoring was performed throughout the study duration.
(§3) Secondary endpoints: Changes from baseline to week 16 in CI (Cardiac Index), PVR (Pulmonary Vascular Resistance), […] (mean pulmonary arterial pressure), and mRAP (mean right atrial pressure); changes from baseline to week 16 in walk distance (6-min walk test), dyspnea fatigue rating, WHO functional class; and safety and tolerability.
(§4) Thirty-three patients entered the study: 11 patients received epoprostenol alone, while 22 patients received bosentan with epoprostenol.

[2] = system: patients with severe pulmonary arterial hypertension; assay: Clinical trial AC-052-355: vital signs (systolic blood pressure, heart rate), change from baseline to week 16; conditions: human, in vivo
Method: as §1, §2, §3, §4

[3] = system: patients with severe pulmonary arterial hypertension; assay: Clinical trial AC-052-355: hemodynamic efficacy, change from baseline to week 16; assay type: in vivo; conditions: change from baseline at week 16
Method: as §1, §2
Primary endpoint: Percent change from baseline in total pulmonary resistance (TPR) to week 16. The sample size was estimated for an expected mean difference in TPR of 28%.
as §3, §4
In Table 1 the results are expressed as changes from baseline at week 16. Mean±SD (standard deviation) and median change (in brackets).

Question: Which “FLUSHING, %” value ([1]; human, in vivo) does the source give for `CCCCC[C@H](O)/C=C/[C@@H]1[C@H]2C/C(=C/CCCC(=O)O)O[C@H]2C[C@H]1O` [Epoprostenol alone, (5Z, 9α, 111α, 13E, 15)-6,9-epoxy-11,15-dihydroxyprosta-5,13-dien-1-oic acid, sodium salt] here?
Answer: 45.5%

Question: What about the “FLUSHING, No.” value ([1]; human, in vivo) of the same molecule?
Answer: 5

Question: And the “HYPOTENSION, %” value ([1]; human, in vivo)?
Answer: 18.2%

Question: What about the “HYPOTENSION, No.” value ([1]; human, in vivo) of the same molecule?
Answer: 2

Question: What about the “PAIN IN JAW, %” value ([1]; human, in vivo) of the same molecule?
Answer: 90.9%

Question: And the “PAIN IN JAW, No.” value ([1]; human, in vivo)?
Answer: 10

Question: What about the “HEADACHE, No.” value ([1]; number of patients with the adverse event, 11 patients epoprostenol alone, 22 bosentan with epoprostenol) of the same molecule?
Answer: 4

Question: What about the “HEADACHE, %” value ([1]; percent of patients with the adverse event) of the same molecule?
Answer: 36.4%

Question: What about the “Heart Rate (bpm), median change from baseline to week 16” value [2] of the same molecule?
Answer: 7.0 bpm

Question: And the “Systolic blood pressure (mmHg), change from baseline to week 16” value [2]?
Answer: −9.8 ± 10.9%

Question: What about the “CI, % mean change” value ([3]; cardiac index, mean (SD in the next cell)) of the same molecule?
Answer: 37.9%

Question: What about the “CI, absolute change” value ([3]; mean (SD in the next cell)) of the same molecule?
Answer: 0.57 L/min/m^2

Question: And the “TPR, absolute change” value ([3]; mean (SD in the next cell))?
Answer: −386 dyn*sec/cm^5

Question: And the “mPAP, absolute change” value ([3]; mean (SD in the next cell))?
Answer: −1.6 mmHg

Question: And the “CI, % median change” value ([3]; median (in brackets))?
Answer: (30.0%)

Question: And the “TPR, % median change” value ([3]; median (in brackets))?
Answer: (−14.3%)

Question: And the “mRAP, absolute change” value ([3]; mean right atrial pressure, mean (SD in the next cell))?
Answer: 0.3 mmHg

Question: What about the “TPR, % mean change” value ([3]; total pulmonary resistance, mean (SD in the next cell)) of the same molecule?
Answer: −22.6%
